{"source": "paper PMC11481871", "about": "“Discovery of GuaB inhibitors with efficacy against Acinetobacter baumannii infection” (mBio, 2024)", "key": {"E. coli GuaB": {"biological_target": "E. coli GuaB (Escherichia coli, UniProt P0ADG7)", "sequence (P0ADG7 whole entry)": "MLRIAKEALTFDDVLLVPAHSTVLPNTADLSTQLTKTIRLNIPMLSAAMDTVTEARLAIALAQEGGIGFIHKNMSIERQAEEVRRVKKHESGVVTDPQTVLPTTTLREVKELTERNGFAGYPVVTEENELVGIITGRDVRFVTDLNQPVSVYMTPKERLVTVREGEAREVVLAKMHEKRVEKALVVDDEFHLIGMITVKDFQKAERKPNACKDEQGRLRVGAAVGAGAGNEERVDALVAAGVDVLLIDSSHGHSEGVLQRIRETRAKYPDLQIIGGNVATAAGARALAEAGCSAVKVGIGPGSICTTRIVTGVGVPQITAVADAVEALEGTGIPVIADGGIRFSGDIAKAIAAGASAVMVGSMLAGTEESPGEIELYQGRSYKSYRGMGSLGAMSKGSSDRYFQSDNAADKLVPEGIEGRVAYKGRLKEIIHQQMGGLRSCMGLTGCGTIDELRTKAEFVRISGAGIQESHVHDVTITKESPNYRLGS", "test": "GuaB biochemical IC50"}, "Acinetobacter baumannii": {"system": "Acinetobacter baumannii", "test": "MIC, CLSI microdilution", "format": "cell-based", "settings": "20 h, M9 + casamino acids + glucose"}, "Enterobacter aerogenes": {"system": "Enterobacter aerogenes", "test": "MIC, CLSI microdilution", "format": "cell-based", "settings": "Klebsiella aerogenes, 20 h; Enterobacter aerogenes (ATCC13048); M9 + casamino acids + glucose"}, "Proteus mirabilis": {"system": "Proteus mirabilis", "test": "MIC, CLSI microdilution", "format": "cell-based", "settings": "20 h; Proteus mirabilis (ATCC29906); M9 + casamino acids + glucose"}, "[1]": {"system": "A. baumannii 19606 (wild-type)", "test": "microbe, parasite or virus in culture", "format": "cell-based, Acinetobacter baumannii", "settings": "for MIC: Acinetobacter baumannii"}, "[2]": {"system": "A. baumannii ΔadeJ (efflux-defective)", "test": "microbe, parasite or virus in culture", "format": "cell-based", "settings": "Acinetobacter baumannii, read-out: Avg. MIC"}, "[3]": {"system": "carbapenem-resistant A. baumannii clinical isolates", "test": "microbe, parasite or virus in culture", "format": "cell-based", "settings": "Acinetobacter baumannii"}, "A. baumannii 19606 [4]": {"system": "A. baumannii 19606", "test": "Fluctuation assay, frequency of spontaneous resistance", "format": "cell-based, Acinetobacter baumannii", "settings": "for frequency of on-target resistance mutations: A. baumannii, 4× or 8× MIC, p0 method; for F.O.R.: P0 method"}, "[5]": {"test": "In vivo pharmacokinetic study, 24-h i.v. infusion", "set-up": "species or system mouse", "settings": "mice; for AUC(0-t): female, CD-1, mouse, whole blood, iv, read-out: exposure AUC0-24", "description": "Two female CD-1 mice were given a 750 mg/kg of 24 h i.v. infusion dose of G2. […] Two female CD-1 mice were given a 250 mg/kg of 24-h i.v. infusion dose of G1. Another group of two mice received 250 mg/kg of 24-h i.v. infusion dose of G1 with a 150 mg/kg ABT PO dose of pretreatment at 2 h prior the i.v. infusion. Ten microliters of blood was collected accurately at 0.5, 1, 2, 4, 6, 8, and 24 h after infusion start. Blood samples were then immediately placed into labeled polypropylene micro-centrifuge tubes containing 40 µL of 1.7 mg/mL potassium (K2) EDTA in water, mixed, and then frozen and stored at −70°C until bio-analysis.\nG2, G1, ABT, and 4-MP blood concentrations in mouse PK studies were determined by LC-MS/MS. All samples were prepared by protein precipitation. Chromatographic separations were achieved using an ACQUITY CM UPLC system (Waters, Milford, MA) including an ACQUITY BSM solvent delivery system, an ACQUITY SM autosampler, and an ACQUITY CM column oven. For G1, G2, and ABT, an ACQUITY UPLC HSS T3 column (2.1 × 50 mm, 1.8 µm) was used. For 4-MP, an ACQUITY UPLC BEH Amide column (2.1 × 50 mm, 1.7 µm) was used. Gradient elution that contained 0.1% formic acid in water and 0.1% formic acid in acetonitrile was used for G1, ABT, and 4-MP. Gradient elution that contained 0.1% formic acid with 2 mM ammonium formate in water/acetonitrile (vol/vol, 95:5) was used for G2. The LC flow rate was 0.6 mL/min for G1, G2, and ABT, and 0.5 mL/min for 4-MP. The sample injection volume was 1 µL for ABT, G1, and G2, and 2 µL for 4-MP. A QTrap 5500/6500 tandem mass spectrometer (SCIEX, Foster City, CA) with TurboIonSpray interface was operated in positive ionization mode with multiple reaction monitoring (MRM) for LC-MS/MS analysis. The mass spectrometer was operated at unit mass resolution for both Q1 and Q3 quadrupoles. The precursor to product ion transitions of analytes are presented as Q1/Q3 ratios for each compound: 4-MP (83.0/56.1), G1 (383.1/197.1), G2 (399.1/171.0), and ABT (135.0/80.1). The standard curves cover the ranges of 0.005 µg/mL–11.7 µg/mL, 0.005 µg/mL–33.4 µg/mL, 0.05 µg/mL–334 µg/mL, and 1.37 µg/mL–334 µg/mL for G1, G2, ABT, and 4-MP, respectively."}, "in vitro": {"test": "in vitro", "format": "cell-based, human", "settings": "human", "description": "(§1) Primary human hepatocytes were plated on 384-well, collagen-coated plates in incubation media with no serum or with 10% fetal bovine serum (FBS). Eighteen hours later, cells were treated with the test article at seven concentrations starting at 100 µM in twofold dilutions, chlorpromazine (positive control) at seven concentrations starting at 100 µM in twofold dilutions or aflatoxin (positive control) at seven concentrations starting at 25 µM in twofold dilutions. Cell viability was then assayed using the Promega Cell TiterGlo ATP Assay."}, "[6]": {"system": "Primary human hepatocytes", "test": "in vitro", "format": "cell-based", "description": "as §1"}, "A. baumannii 19606 [7]": {"system": "A. baumannii 19606", "test": "Neutropenic thigh infection model with i.v. GuaBi", "settings": "for bacterial load in thigh muscle: neutropenic CD-1 mice, A. baumannii 19606, i.v. infusion with PK boosters, 24 h, high dose groups; for free drug over serum-free MIC at which bactericidal: neutropenic thigh model, A. baumannii"}, "[8]": {"settings": "24 h, M9 media + 100µM guanine, 24 hours, read-out: A.b.19606 Average CLSI MIC (n=3)"}, "[9]": {"settings": "24 h, M9 media, 24 hours, read-out: A.b.19606 Average CLSI MIC (n=3)"}, "[10]": {"settings": "A. baumannii 19606 wild-type (Fig 3D), read-out: Avg. MIC"}, "[11]": {"settings": "guaB allele wild-type, M9 media (cross-resistance table), read-out: A.b.19606 Average CLSI MIC (n=3)"}, "[12]": {"settings": "General cytotoxicity IC50, Serum"}, "[13]": {"settings": "General cytotoxicity IC50, Serum-Free"}}, "note": "Like-named read-outs stand apart in the source and are kept apart here.", "data": [{"compound": "C[C@H](Nc1ccc2ncc3c(c2c1)CCOC3)C(=O)Nc1ccc(Cl)nc1", "note": "[G1, (2S)-N-(6-chloro-3-pyridyl)-2-(2,4-dihydro-1H-pyrano[3,4-c]quinolin-9 ylamino)propanamide]", "values": [{"measurement": "IC50", "setting": "E. coli GuaB", "result": 0.48, "unit": "µM"}, {"measurement": "MIC", "setting": "Acinetobacter baumannii", "result": 0.5, "unit": "µM"}, {"measurement": "MIC", "setting": "Enterobacter aerogenes", "result": "> 100", "unit": "µM"}, {"measurement": "MIC", "setting": "Proteus mirabilis", "result": "> 100", "unit": "µM"}, {"measurement": "MIC", "setting": "[1]; [8]", "result": "> 100", "unit": "µM"}, {"measurement": "MIC", "setting": "[1]; [9]", "result": 1, "unit": "µM"}, {"measurement": "MIC", "setting": "[1]; [10]", "result": 0.69, "unit": "µM"}, {"measurement": "MIC", "setting": "[1]; [11]", "result": 0.5, "unit": "µM"}, {"measurement": "GuaBi CLSI MIC fold change from parent strain", "setting": "[1]; guaB allele wild-type", "result": 1}, {"measurement": "MIC", "setting": "[2]", "result": 0.016, "unit": "µM"}, {"measurement": "MIC50", "setting": "[3]", "result": 3.1, "unit": "µM"}, {"measurement": "MIC90", "setting": "[3]", "result": 8, "unit": "µM"}, {"measurement": "frequency of on-target resistance mutations", "setting": "A. baumannii 19606 [4]", "result": "6.4 × 10^−11 to 2.9 × 10^−10"}, {"measurement": "AUC(0-t)", "setting": "[5]; 24-h i.v. infusion 250 mg/kg, co-administered 150 mg/kg ABT", "result": 692, "unit": "µM·h"}, {"measurement": "exposure higher than without co-administration with ABT", "setting": "[5]; 250 mg/kg 24-h i.v. infusion", "result": "fourfold"}, {"measurement": "IC50 at 2 day", "setting": "in vitro; [12]", "result": "> 100", "unit": "µM"}, {"measurement": "IC50 at 2 day", "setting": "in vitro; [13]", "result": "> 100", "unit": "µM"}, {"measurement": "in vitro safety profile: cytotoxicity", "setting": "[6]", "result": "low cytotoxicity"}, {"measurement": "bacterial load in thigh muscle", "setting": "A. baumannii 19606 [7]", "result": "reduced the bacterial load in thigh muscle compared to pre-treatment"}, {"measurement": "free drug over serum-free MIC at which bactericidal", "setting": "A. baumannii 19606 [7]", "result": "above 2 × Fu/MIC"}]}, {"compound": "C[C@H](Nc1ccc2ncc(CO)cc2c1)C(=O)Nc1ccc(Cl)c(N(C)C)c1", "note": "[G2, (2S)-N-[4-chloro-3-(dimethylamino)phenyl]-2-[[3-(hydroxymethyl)-6-quinolyl]amino]propanamide]", "values": [{"measurement": "IC50", "setting": "E. coli GuaB", "result": 0.016, "unit": "µM"}, {"measurement": "MIC", "setting": "Acinetobacter baumannii", "result": 3.1, "unit": "µM"}, {"measurement": "MIC", "setting": "Enterobacter aerogenes", "result": "> 100", "unit": "µM"}, {"measurement": "MIC", "setting": "Proteus mirabilis", "result": "> 100", "unit": "µM"}, {"measurement": "MIC", "setting": "[1]; [8]", "result": "> 100", "unit": "µM"}, {"measurement": "MIC", "setting": "[1]; [9]", "result": 4.2, "unit": "µM"}, {"measurement": "MIC", "setting": "[1]; [10]", "result": 2, "unit": "µM"}, {"measurement": "MIC", "setting": "[1]; [11]", "result": 4.2, "unit": "µM"}, {"measurement": "GuaBi CLSI MIC fold change from parent strain", "setting": "[1]; guaB allele wild-type", "result": 1}, {"measurement": "MIC", "setting": "[2]", "result": 0.04, "unit": "µM"}, {"measurement": "MIC50", "setting": "[3]", "result": 6.25, "unit": "µM"}, {"measurement": "MIC90", "setting": "[3]", "result": 16, "unit": "µM"}, {"measurement": "frequency of on-target resistance mutations", "setting": "A. baumannii 19606 [4]", "result": "3.6 × 10^−10 to 5.1 × 10^−10"}, {"measurement": "F.O.R.", "setting": "A. baumannii 19606 [4]; selection 4xMIC (G1 3.1µM; G2 6.4µM)", "result": "3.60E-10"}, {"measurement": "F.O.R.", "setting": "A. baumannii 19606 [4]; selection 8xMIC (12.8µM)", "result": "5.10E-10"}, {"measurement": "AUC(0-t)", "setting": "[5]; 24-h i.v. infusion 750 mg/kg, co-administered 150 mg/kg ABT and 100 mg/kg 4-MP", "result": 21300, "unit": "µM·h"}, {"measurement": "exposure higher than without co-administration with ABT and 4-MP", "setting": "[5]; 750 mg/kg 24-h i.v. infusion", "result": 100, "unit": "fold"}, {"measurement": "IC50 at 2 day", "setting": "in vitro; [12]", "result": "> 100", "unit": "µM"}, {"measurement": "IC50 at 2 day", "setting": "in vitro; [13]", "result": "> 100", "unit": "µM"}, {"measurement": "in vitro safety profile: cytotoxicity", "setting": "[6]", "result": "low cytotoxicity"}, {"measurement": "bacterial load in thigh muscle", "setting": "A. baumannii 19606 [7]", "result": "reduced the bacterial load in thigh muscle compared to pre-treatment"}, {"measurement": "free drug over serum-free MIC at which bactericidal", "setting": "A. baumannii 19606 [7]", "result": 5, "unit": "× Fu/MIC"}]}, {"compound": "C[C@@H](Oc1ccc2ncc3c(c2c1)CCOC3)c1cncc(-c2nc(Cl)c[nH]2)c1", "note": "[G8, (R)-9-[1-[5-(4-chloro-1H-imidazol-2-yl)-3-pyridyl]ethoxy]-2,4-dihydro-1H-pyrano[3,4 c]quinoline]", "values": [{"measurement": "IC50", "setting": "E. coli GuaB", "result": 0.008, "unit": "µM"}, {"measurement": "MIC", "setting": "Acinetobacter baumannii", "result": 1.3, "unit": "µM"}, {"measurement": "MIC", "setting": "Enterobacter aerogenes", "result": "> 100", "unit": "µM"}, {"measurement": "MIC", "setting": "Proteus mirabilis", "result": "> 100", "unit": "µM"}, {"measurement": "MIC", "setting": "[1]; [8]", "result": "> 100", "unit": "µM"}, {"measurement": "MIC", "setting": "[1]; [9]", "result": 0.4, "unit": "µM"}, {"measurement": "MIC", "setting": "[1]; [10]", "result": 0.39, "unit": "µM"}, {"measurement": "MIC", "setting": "[1]; [11]", "result": 0.3, "unit": "µM"}, {"measurement": "GuaBi CLSI MIC fold change from parent strain", "setting": "[1]; guaB allele wild-type", "result": 1}, {"measurement": "MIC", "setting": "[2]", "result": 0.01, "unit": "µM"}, {"measurement": "IC50 at 2 day", "setting": "in vitro; [12]", "result": 19.2, "unit": "µM"}, {"measurement": "IC50 at 2 day", "setting": "in vitro; [13]", "result": 30.2, "unit": "µM"}, {"measurement": "in vitro safety profile: cytotoxicity", "setting": "[6]", "result": "cytotoxicity liabilities"}]}]}
